These results are taken from patent US20160145257A1, “SUBSTITUTED XANTHINES AND METHODS OF USE THEREOF” (Hydra Biosciences, Inc., priority 2013, published 2016).

The test has as its target T1, hTRPC5 (Homo sapiens, UniProt Q9UL62).
T1 construct: expressed in transfected cells; host or cells: HEK293 TREx cells with inducible TRPC5 expression
T1 sequence (Q9UL62 1-973): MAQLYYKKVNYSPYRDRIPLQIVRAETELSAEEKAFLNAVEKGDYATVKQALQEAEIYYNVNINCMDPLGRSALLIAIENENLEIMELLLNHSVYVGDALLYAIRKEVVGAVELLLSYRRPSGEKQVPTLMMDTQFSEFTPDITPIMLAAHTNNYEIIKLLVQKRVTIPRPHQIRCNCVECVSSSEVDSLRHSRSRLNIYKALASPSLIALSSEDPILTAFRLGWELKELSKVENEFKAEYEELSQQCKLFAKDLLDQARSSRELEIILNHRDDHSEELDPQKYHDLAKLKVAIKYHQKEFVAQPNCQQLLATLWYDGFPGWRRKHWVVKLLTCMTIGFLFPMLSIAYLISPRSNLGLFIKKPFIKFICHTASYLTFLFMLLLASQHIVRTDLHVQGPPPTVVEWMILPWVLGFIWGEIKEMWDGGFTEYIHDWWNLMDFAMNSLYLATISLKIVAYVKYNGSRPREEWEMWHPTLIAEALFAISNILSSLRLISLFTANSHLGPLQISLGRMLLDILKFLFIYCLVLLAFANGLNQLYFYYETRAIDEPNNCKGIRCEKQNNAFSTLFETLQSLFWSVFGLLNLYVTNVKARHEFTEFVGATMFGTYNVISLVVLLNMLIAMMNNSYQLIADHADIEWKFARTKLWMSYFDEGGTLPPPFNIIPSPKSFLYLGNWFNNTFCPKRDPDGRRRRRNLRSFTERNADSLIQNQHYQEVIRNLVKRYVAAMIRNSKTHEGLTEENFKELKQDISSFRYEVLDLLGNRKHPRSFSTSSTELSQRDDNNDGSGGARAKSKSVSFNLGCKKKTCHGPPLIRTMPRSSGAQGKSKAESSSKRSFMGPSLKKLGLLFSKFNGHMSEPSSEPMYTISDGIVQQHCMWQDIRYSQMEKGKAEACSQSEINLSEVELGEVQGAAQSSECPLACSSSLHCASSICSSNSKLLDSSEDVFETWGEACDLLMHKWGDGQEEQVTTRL
Description: Whole-cell patch clamp, block of LaCl3-activated TRPC5 inward current. Type of test: cell-based. As to conditions: TRPC5-expressing HEK293 TREx cells, 80 μM LaCl3, inward current, IC50 estimated from 5 μM and 500 nM, read-out: hTRPC5 Patch La3+ Inwd (nM) (All Batches). The procedure, abridged: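 Whole-cell recordings in induced TRPC5-expressing HEK293 TREx cells, holding −40 mV, 400 ms ramps −120 to +100 mV every 5 s; current activated by 80 μM external LaCl3 and 1,400 nM pipette free Ca2+ (pH 7.2 internal, 7.4 external). Inward block at −80 mV, with LaCl3 present; IC50 estimated from testing at 5 μM and 500 nM.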
Take `CCc1coc(CSc2nc3c(c(=O)n(C)c(=O)n3C)n2Cc2cccc(OC)c2)n1` [Compound 130, 8-((4-ethyloxazol-2-yl)methylthio)-7-(3-methoxybenzyl)-1,3-dimethyl-1H-purine-2,6(3H,7H)-dione]: the IC50 was 500 to 1000 nM.

Consider `CCCOCCc1nc2c(c(=O)n(C)c(=O)n2C)n1Cc1ccc(C(C)=O)cc1` [Compound 158], for which the IC50 was 2000 to 10000 nM.

Take `CN1CCN(C(=O)Cc2nc3c(c(=O)n(C)c(=O)n3C)n2Cc2cccc(Br)c2)CC1` [Compound 29]: the IC50 was 2000 to 10000 nM.

`CCOC(=O)C(C)(C)CCc1nc2c(c(=O)n(C)c(=O)n2C)n1Cc1cccc(Br)c1` [Compound 83]: the IC50 was 2000 to 10000 nM.

Consider `CCNCCCc1nc2c(c(=O)n(C)c(=O)n2C)n1Cc1cccc(Br)c1` [Compound 53], for which the IC50 is 2000 to 10000 nM.

Turning to `CCCOCCc1nc2c(c(=O)n(C)c(=O)n2C)n1Cc1cccc(F)c1` [Compound 92], the IC50 is 2000 to 10000 nM.

`CCOC(=O)CCC(C)c1nc2c(c(=O)n(C)c(=O)n2C)n1Cc1cccc(Br)c1` (stereo not drawn) [Compound 135, Ethyl 4-(7-(3-bromobenzyl)-1,3-dimethyl-2,6-dioxo-2,3,6,7-tetrahydro-1H-purin-8-yl)pentanoate]: the IC50 is 500 to 1000 nM.

Consider `CCCC(O)c1cccc(Oc2nc3c(c(=O)n(C)c(=O)n3C)n2Cc2cccc(Br)c2)c1` (stereo not drawn) [Compound 173, 7-(3-bromobenzyl)-8-(3-(1-hydroxybutyl)phenoxy)-1,3-dimethyl-1H-purine-2,6(3H,7H)-dione], for which the IC50 is 2000 to 10000 nM.

For `Cc1c(Oc2nc3c(c(=O)n(C)c(=O)n3C)n2Cc2ccc(Cl)cc2)cccc1C(F)(F)F` [Compound 207, 7-(4-chlorobenzyl)-1,3-dimethyl-8-(2-methyl-3-(trifluoromethyl)phenoxy)-1H-purine-2,6(3H,7H)-dione], the IC50 is 2000 to 10000 nM.

As to `CCCN(CCc1nc2c(c(=O)n(C)c(=O)n2C)n1Cc1cccc(Br)c1)C(C)=O` [Compound 49], the IC50 is 2000 to 10000 nM.

Take `CCCOCCc1nc2c(c(=O)n(C)c(=O)n2C)n1Cc1cccc(Cl)c1` [Compound 107]: the IC50 was 500 to 1000 nM.

Regarding `Cn1c(=O)c2c(nc(Oc3cc(Cl)cc(OC(F)(F)F)c3)n2Cc2ccc(Cl)cc2)n(C)c1=O` [Compound 202, 8-(3-chloro-5-(trifluoromethoxy)phenoxy)-7-(4-chlorobenzyl)-1,3-dimethyl-1H-purine-2,6(3H,7H)-dione], the IC50 is < 100 nM.

As for `Cn1c(=O)c2c(nc(Oc3cccc(C(F)(F)F)c3)n2Cc2cccc3ccccc23)n(C)c1=O` [Compound 179, 1,3-dimethyl-7-(naphthalen-1-ylmethyl)-8-(3-(trifluoromethyl)phenoxy)-1H-purine-2,6(3H,7H)-dione], the IC50 was 100 to 500 nM.

For `CCc1coc(CSc2nc3c(c(=O)n(C)c(=O)n3C)n2Cc2cccc(C#N)c2)n1` [Compound 170, 3-((8-((4-ethyloxazol-2-yl)methylthio)-1,3-dimethyl-2,6-dioxo-2,3-dihydro-1H-purin-7(6H)-yl)methyl)benzonitrile], the IC50 is 2000 to 10000 nM.

For `CCCOCCc1nc2c(c(=O)n(C)c(=O)n2C)n1Cc1ccc(C#N)cc1` [Compound 118], the IC50 is 2000 to 10000 nM.

Turning to `CCOCC(C)(C)Sc1nc2c(c(=O)n(C)c(=O)n2C)n1Cc1cccc(Br)c1` [Compound 56, 7-(3-bromobenzyl)-8-(1-ethoxy-2-methylpropan-2-ylthio)-1,3-dimethyl-1H-purine-2,6(3H,7H)-dione], the IC50 was 1000 to 2000 nM.

On to `CCC(CO)NC(=O)C(C)Cc1nc2c(c(=O)n(C)c(=O)n2C)n1Cc1cccc(Br)c1` (stereo not drawn) [Compound 165], for which the IC50 was 2000 to 10000 nM.

`CCCOCCc1nc2c(c(=O)n(C)c(=O)n2C)n1Cc1ccc(Br)cc1` [Compound 95, 7-(4-bromobenzyl)-1,3-dimethyl-8-(2-propoxyethyl)-1H-purine-2,6(3H,7H)-dione]: the IC50 is 1000 to 2000 nM.

In the case of `COCCOCCSc1nc2c(c(=O)n(C)c(=O)n2C)n1Cc1cccc(Br)c1` [Compound 17, 7-(3-bromobenzyl)-8-(2-(2-methoxyethoxy)ethylthio)-1,3-dimethyl-1H-purine-2,6(3H,7H)-dione], the IC50 was 100 to 500 nM.

Turning to `CCCOCCc1nc2c(c(=O)n(C)c(=O)n2C)n1Cc1cccc(C#N)c1` [Compound 119], the IC50 was 2000 to 10000 nM.

Turning to `CCOC(=O)CC(C)c1nc2c(c(=O)n(C)c(=O)n2C)n1Cc1cccc(Br)c1` (stereo not drawn) [Compound 86], the IC50 was 100 to 500 nM.

As to `CCCOCCc1nc2c(c(=O)n(C)c(=O)n2C)n1Cc1ccc(C)cc1` [Compound 94, 1,3-dimethyl-7-(4-methylbenzyl)-8-(2-propoxyethyl)-1H-purine-2,6(3H,7H)-dione], the IC50 is 2000 to 10000 nM.

Take `Cn1c(=O)c2c(nc(CCCN3CCCC3)n2Cc2cccc(Br)c2)n(C)c1=O` [Compound 81]: the IC50 is 2000 to 10000 nM.

For `CCc1coc(CSc2nc3c(c(=O)n(C)c(=O)n3C)n2Cc2cccc(C(C)=O)c2)n1` [Compound 180, 7-(3-acetylbenzyl)-8-((4-ethyloxazol-2-yl)methylthio)-1,3-dimethyl-1H-purine-2,6(3H,7H)-dione], the IC50 is 2000 to 10000 nM.

Consider `CCOCCNc1nc2c(c(=O)n(C)c(=O)n2C)n1Cc1cccc(Br)c1` [Compound 21], for which the IC50 is 2000 to 10000 nM.

On to `CCCOCCc1nc2c(c(=O)n(C)c(=O)n2C)n1Cc1cccc(C(C)=O)c1` [Compound 159], for which the IC50 is 2000 to 10000 nM.

On to `CN(C)Cc1ccc(Cn2c(Oc3cccc(OC(F)(F)F)c3)nc3c2c(=O)n(C)c(=O)n3C)cc1` [Compound 186], for which the IC50 was 2000 to 10000 nM.

With `CCOC(=O)C(C)CCc1nc2c(c(=O)n(C)c(=O)n2C)n1Cc1cccc(Br)c1` (stereo not drawn) [Compound 136, Ethyl 4-(7-(3-bromobenzyl)-1,3-dimethyl-2,6-dioxo-2,3,6,7-tetrahydro-1H-purin-8-yl)-2-methylbutanoate], the IC50 was 1000 to 2000 nM.

For the compound `CCc1coc(CSc2nc3c(c(=O)n(C)c(=O)n3C)n2Cc2ccc(OC(F)(F)F)cc2)n1` [Compound 148, 8-((4-ethyloxazol-2-yl)methylthio)-1,3-dimethyl-7-(4-(trifluoromethoxy)benzyl)-1H-purine-2,6(3H,7H)-dione], the IC50 was 100 to 500 nM.

For the compound `CCOC(=O)Cc1nc2c(c(=O)n(C)c(=O)n2C)n1Cc1cccc(Br)c1` [Compound 34, Ethyl 2-(7-(3-bromobenzyl)-1,3-dimethyl-2,6-dioxo-2,3,6,7-tetrahydro-1H-purin-8yl)acetate], the IC50 was 2000 to 10000 nM.

For the compound `Cc1ccc(Oc2nc3c(c(=O)n(C)c(=O)n3C)n2Cc2cccc(Cl)c2)cc1` [Compound 76], the IC50 is 2000 to 10000 nM.

For `Cn1c(=O)c2c(nc(Oc3cccc(Cl)c3)n2Cc2cccc(Br)c2)n(C)c1=O` [Compound 110, 7-(3-bromobenzyl)-8-(3-chlorophenoxy)-1,3-dimethyl-1H-purine-2,6(3H,7H)-dione], the IC50 was 100 to 500 nM.

`Cn1c(=O)c2c(nc(Cc3cccc(C#N)c3)n2Cc2cccc(Br)c2)n(C)c1=O` [Compound 101]: the IC50 is 2000 to 10000 nM.

Regarding `Cn1c(=O)c2c(nc(Sc3cccc(C(F)(F)F)c3)n2Cc2ccc(Cl)cc2)n(C)c1=O` [Compound 192, 7-(4-chlorobenzyl)-1,3-dimethyl-8-(3-(trifluoromethyl)phenylthio)-1H-purine-2,6(3H,7H)-dione], the IC50 was 100 to 500 nM.

On to `Cc1coc(-c2cccc(Cc3nc4c(c(=O)n(C)c(=O)n4C)n3Cc3cccc(Br)c3)c2)n1` [Compound 104], for which the IC50 is 2000 to 10000 nM.

Turning to `CN(Cc1ccccc1)c1nc2c(c(=O)n(C)c(=O)n2C)n1Cc1ccc(Cl)c(Cl)c1` [Compound 67], the IC50 is 2000 to 10000 nM.

Consider `Cn1c(=O)c2c(nc(CCCO)n2Cc2cccc(Br)c2)n(C)c1=O` [Compound 43], for which the IC50 is 2000 to 10000 nM.

As to `Cn1c(=O)c2c(nc(OCCCCCO)n2Cc2ccc(Cl)cc2)n(C)c1=O` [Compound 217, 7-(4-Chlorobenzyl)-8-((5-hydroxypentyl)oxy)-1,3-dimethyl-1H-purine-2,6(3H,7H)-dione], the IC50 was 2000 to 10000 nM.

For the compound `Cn1c(=O)c2c(nc(SC(C)(C)C(=O)OC(C)(C)C)n2Cc2cccc(Br)c2)n(C)c1=O` [Compound 3, Tert-butyl 2-(7-(3-bromobenzyl)-1,3-dimethyl-2,6-dioxo-2,3,6,7-tetrahydro-1H-purin-8-ylthio)-2-methylpropanoate], the IC50 is 100 to 500 nM.
